O=c1c(O)c(-c2ccc(O)c(O)c2)oc2cc(O)cc(O)c12
solubility (mole fraction)
Details | 292.8 K | 298.6 K | 303.2 K | 308.6 K | 314.1 K | 318.8 K | 322.2 K | 325.6 K | 331.2 K | 333.8 K
in ethanol | 0.00135 | 0.00153 | 0.00165 | 0.00178 | 0.00193 | 0.00207 | 0.00218 | 0.0023 | 0.0025 | 0.00255
in methanol | 0.000845 | 0.000919 | 0.000957 | 0.00104 | 0.00113 | 0.00127 | 0.00133 | 0.00142 | 0.00159 | 0.00163
in water | 5.04e-05 | 5.51e-05 | 5.85e-05 | 6.18e-05 | 6.53e-05 | 6.7e-05 | 6.91e-05 | 7.13e-05 | 7.38e-05 | 7.53e-05
